Experimental data as given in ChEMBL document CHEMBL1128746, “Aminoalkylindoles: structure-activity relationships of novel cannabinoid mimetics” (J Med Chem, 1995).

Tests used:
Cannabinoid receptor 1 = Cannabinoid receptor 1 (Rattus norvegicus, UniProt P20272); assay: […] [3H]WIN-55212 binding to Cannabinoid receptor 1 in rat cerebellum membranes.; assay type: cell membranes, Membrane
Mus musculus = species on record: Mus musculus; assay: Concentration required to inhibit electrically induced contractions in isolated mouse vas deferens preparation in vitro; assay type: functional

Cannabinoid receptor 1, sequence (P20272 whole entry): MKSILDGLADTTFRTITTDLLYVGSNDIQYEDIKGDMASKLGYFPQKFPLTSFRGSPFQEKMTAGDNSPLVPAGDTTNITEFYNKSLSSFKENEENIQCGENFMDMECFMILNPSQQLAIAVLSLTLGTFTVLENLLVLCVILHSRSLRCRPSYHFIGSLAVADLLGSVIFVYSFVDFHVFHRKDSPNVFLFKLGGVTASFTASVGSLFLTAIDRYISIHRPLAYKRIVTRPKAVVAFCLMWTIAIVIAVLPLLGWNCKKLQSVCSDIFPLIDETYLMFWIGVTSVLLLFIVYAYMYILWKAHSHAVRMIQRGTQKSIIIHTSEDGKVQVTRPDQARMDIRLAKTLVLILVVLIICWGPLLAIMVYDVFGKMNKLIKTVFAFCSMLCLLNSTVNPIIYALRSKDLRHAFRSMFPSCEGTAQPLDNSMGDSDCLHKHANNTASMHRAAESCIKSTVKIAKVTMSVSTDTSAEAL

Structure (SMILES)	IC50 (Cannabinoid receptor 1)	IC50 (Mus musculus; Mus musculus)	IC50 (Mus musculus)
Cc1cccc(C(=O)c2c(C)n(CCN3CCOCC3)c3ccccc23)c1	606 nM		
O=C(c1ccc2ccoc2c1)c1cn(CCN2CCOCC2)c2ccccc12	304 nM	40 nM	
Cc1c(C(=O)c2cccc3ccoc23)c2ccccc2n1CCN1CCOCC1	71 nM	17 nM	
COc1ccc(C(=O)c2c(C)[nH]c3ccccc23)cc1		27 nM	
Cc1c(C(=O)c2cccc3ncccc23)c2ccccc2n1CCN1CCOCC1	828 nM	79 nM	
COc1ccc(C(=O)c2c(C)n(CCN3CCOCC3)c3cc(OC)ccc23)cc1	1450 nM	> 10000 nM	
O=C(c1ccc(O)c2ccccc12)c1cn(CCN2CCOCC2)c2ccccc12	3.4 nM		
O=C(c1ccc2ccccc2c1)c1cn(CCN2CCOCC2)c2ccccc12	59 nM	31 nM	
Cc1ccc2c(C(=O)c3cccc4ccccc34)c(C)n(CCN3CCOCC3)c2c1	11 nM	15 nM	
O=C(c1cccc2ccccc12)c1cn(CCN2CCOCC2)c2ccc(F)cc12	35 nM	7.3 nM	
COc1ccc(C(=O)c2c(C)n(CCN)c3ccccc23)cc1		> 10000 nM	
O=C(c1cccc2occc12)c1cn(CCN2CCOCC2)c2ccccc12	24 nM	7.7 nM	
Cc1ccc(C(=O)c2c(C)n(CCN3CCOCC3)c3ccccc23)cc1	1770 nM	442 nM	
COc1ccc(C(=O)c2c(C)n(CCN3CCOCC3)c3c(F)cccc23)cc1	571 nM	73 nM	
CC(CN1CCOCC1)n1cc(C(=O)c2cccc3ccccc23)c2ccccc21 (stereo in doubt; -106)	33 nM		12 nM
CCCCCc1cc(O)c2c(c1)OC(C)(C)[C@@H]1CCC(C)=C[C@@H]21 [DRONABINOL]		4 nM	
Cc1c(C(=O)c2ccc3ncccc3c2)c2ccccc2n1CCN1CCOCC1	499 nM	103 nM	
Cc1c(C(=O)c2ccc3cccnc3c2)c2ccccc2n1CCN1CCOCC1		88 nM	
COc1ccc(C(=O)c2c(C)n(CCN3CCOCC3)c3c(C)cccc23)cc1	1530 nM	178 nM	
Cc1c(C(=O)c2cc3ccccc3o2)c2ccccc2n1CCN1CCOCC1	416 nM	324 nM	
COc1ccc(C(=O)c2c(C)n(CC(=O)O)c3ccccc23)cc1		> 10000 nM	
Cc1c(C(=O)c2c3ccccc3cc3ccccc23)c2ccccc2n1CCN1CCOCC1		> 10000 nM	
Cc1c(C(=O)c2ccc(C#N)c3ccccc23)c2ccccc2n1CCN1CCOCC1	15 nM	15 nM	
COc1ccc(C(=O)c2c(C)n(CCN3CCOCC3)c3ccccc23)c2ccccc12	55 nM	23 nM	
Cc1c(C(=O)c2cccc3ccccc23)c2ccccc2n1CCN1CCOC(C)C1 (stereo not given)	59 nM	30 nM	
CCc1ccc(C(=O)c2c(C)n(CCN3CCOCC3)c3ccccc23)cc1	306 nM	71 nM	

Structure (SMILES)	IC50 (Cannabinoid receptor 1)	IC50 (Mus musculus; Mus musculus)	IC50 (Mus musculus)
Cc1c(C(=O)c2cccc(Cl)c2)c2ccccc2n1CCN1CCOCC1	1320 nM		
O=C(c1cccc2ccccc12)c1cn(CCN2CCOCC2)c2ccc(Br)cc12	186 nM	19 nM	
Cc1c(C(=O)c2cccc3ccccc23)c2ccccc2n1C(C)CN1CCOCC1 (racemic; form 2)	13 nM		11 nM
Cc1c(C(=O)c2cccc3ccccc23)c2ccc(Br)cc2n1CCN1CCOCC1	10 nM		
COc1cccc2c(C(=O)c3cccc4ccccc34)c(C)n(CCN3CCOCC3)c12	10 nM		
Cc1c(C(=O)c2ccnc3ccccc23)c2ccccc2n1CCN1CCOCC1	283 nM	115 nM	
COc1ccc(C(=O)c2c(C)n(CCN3CCOCC3C)c3ccccc23)cc1 (stereo not given)		> 10000 nM	
COc1ccc(C(=O)c2c(C)n(CC(C)N3CCOCC3)c3ccccc23)cc1 (stereo not given)		> 10000 nM	
CCc1c(C(=O)c2ccc(OC)cc2)c2ccccc2n1CCN1CCOCC1		> 10000 nM	
Cc1c(C(=O)c2cccc3ccccc23)c2ccccc2n1CCN1CCOCC1	19 nM	15 nM	
COc1ccc(C(=O)c2c(C)n(CCN3CCOCC3)c3cc(Br)ccc23)cc1	515 nM	> 10000 nM	
O=C(c1cccc2ccccc12)c1cn(CCN2CCOCC2)c2ccc(O)cc12	70 nM	20 nM	
O=C(c1cccc2ccccc12)c1cn(CCCN2CCOCC2)c2ccccc12	43 nM	9.8 nM	
Cc1c(C(=O)c2cccc3ccccc23)c2ccccc2n1CCN1CCN(C)CC1		> 10000 nM	
COc1ccc(C(=O)c2c(C)n(CC[N+]3(C)CCOCC3)c3ccccc23)cc1		4310 nM	
Cc1c(C(=O)c2coc3ccccc23)c2ccccc2n1CCN1CCOCC1	110 nM	52 nM	
O=C(c1ccc2occc2c1)c1cn(CCN2CCOCC2)c2ccccc12	138 nM	28 nM	
Cc1c(C(=O)c2ccc3occc3c2)c2ccccc2n1CCN1CCOCC1	357 nM	126 nM	
O=C(c1cn(CCN2CCOCC2)c2ccccc12)c1cccc2ccoc12	18 nM	4.6 nM	
Cc1c(C(=O)c2ccc(Br)c3ccccc23)c2ccccc2n1CCN1CCOCC1	6.9 nM	34 nM	
CC(CN1CCOCC1)n1cc(C(=O)c2cccc3ccccc23)c2ccccc21 (racemic; form 2)			19 nM
Cc1c(C(=O)c2ccc3ccccc3c2)c2ccccc2n1CCN1CCOCC1	128 nM	50 nM	
CC(Cn1cc(C(=O)c2cccc3ccccc23)c2ccccc21)N1CCOCC1 (stereo not given)	124 nM	60 nM	
O=C(c1cccc2ccccc12)c1c(Cl)n(CCN2CCOCC2)c2ccccc12	10 nM	6.1 nM	
Cc1c(C(=O)c2cccc3ccccc23)c2ccccc2n1C(C)CN1CCOCC1 (racemic; form 1)			56 nM
CCN(CC)CCn1c(C)c(C(=O)c2ccc(OC)cc2)c2ccccc21		> 10000 nM	

Structure (SMILES)	IC50 (Cannabinoid receptor 1)	IC50 (Mus musculus; Mus musculus)	IC50 (Mus musculus)
COc1ccc(C(=O)c2cn(CCN3CCOCC3)c3ccccc23)c2ccccc12	1.4 nM		
Cc1cccc(C(=O)c2c(C)n(CCN3CCOCC3)c3ccccc23)c1C	373 nM		
COc1ccc(C(=O)c2c(C)n(CCN3CCOC(C)C3)c3ccccc23)cc1 (stereo not given)		> 10000 nM	
COc1ccc(C(=O)c2c(C)n(CCN3CCOCC3)c3ccccc23)cc1 [PRAVADOLINE]	3150 nM	319 nM	
COc1ccc(C(=O)c2c(C)n(CCCCN3CCOCC3)c3ccccc23)cc1		> 10000 nM	
O=C(c1cn(CCN2CCOCC2)c2ccccc12)C1CCCc2ccccc21 (stereo not given)	38 nM	11 nM	
Cc1c(C(=O)c2cccc3ccccc23)c2ccccc2n1CCN1CCCCC1	37 nM	66 nM	
CCCc1ccc(C(=O)c2c(C)n(CCN3CCOCC3)c3ccccc23)cc1	1130 nM		
O=C(c1c2ccccc2cc2ccccc12)c1cn(CCN2CCOCC2)c2ccccc12	2960 nM	> 10000 nM	
COc1ccc(C(=O)c2cn(CCN3CCOCC3)c3ccccc23)cc1	390 nM	101 nM	
Cc1c(C(=O)c2cccc3ccccc23)c2ccccc2n1CCN1CCOCC1C (stereo not given)	384 nM	207 nM	
O=C(c1ccc2ncccc2c1)c1cn(CCN2CCOCC2)c2ccccc12	491 nM	142 nM	
CC(CN1CCOCC1)n1cc(C(=O)c2cccc3ccccc23)c2ccccc21 (racemic; form 1)	114 nM		60 nM
COc1ccc(C(=O)c2c(C)n(CCN3CCSCC3)c3ccccc23)cc1	622 nM		
Cc1c(C(=O)c2ccc3ccccc3n2)c2ccccc2n1CCN1CCOCC1	331 nM	99 nM	
Cc1c(C(=O)c2cccc3ccccc23)c2ccccc2n1CCCN1CCOCC1	150 nM	112 nM	
COc1ccc(C(=O)c2c(C)n(CCN3CCNCC3)c3ccccc23)cc1		> 10000 nM	
Cc1c(C(=O)c2cccc3cccnc23)c2ccccc2n1CCN1CCOCC1	274 nM	129 nM	
COc1ccccc1C(=O)c1c(C)n(CCN2CCOCC2)c2ccccc12	800 nM	91 nM	
Cc1ccc(C(=O)c2c(C)n(CCN3CCOCC3)c3ccccc23)c2ccccc12	5.9 nM	9.6 nM	
COc1ccc(C(=O)c2c(C)n(CCN3CCOCC3)c3cc(C)ccc23)cc1	1880 nM	> 10000 nM	
Cc1ccc2c(C(=O)c3cccc4ccccc34)cn(CCN3CCOCC3)c2c1	3.5 nM	1.7 nM	
O=C(c1cccc2ccccc12)c1cn(CCN2CCOCC2)c2ccccc12	7.8 nM	6.3 nM	
Cc1ccc(C(=O)c2c(C)n(CCN3CCOCC3)c3ccccc23)cc1C	140 nM		
